One data set has as its system U87MG cells. As to the kind of experiment: In vitro competitive inhibition of boramino acid uptake by natural amino acids and transporter inhibitors. Conditions: for inhibition at 25000 µM / inhibition: Homo sapiens, U-87 MG, 1 h; for inhibition: read-out: inhibition of uptake of 18F-Leu-BF3. Set-up: inhibition: dose or concentration left out as unconfirmed.
The nature of data set [1]: Solvolysis of the BF3 moiety in phosphate buffer. Type of data set: physicochemical. Conditions: for t1/2/min: half-life in phosphate buffer at pH 7.4; for pKB-F: pK of the first fluorine of the BF3− moiety; for k (solv)/min^−1: rate of solvolysis, phosphate buffer pH 7.4. From the text:
See also, Liu et al., Chem. Eur. J., 2015, 21:3924-8, incorporated herein by reference in its entirety.

The conditions of data set [2]: COOH group of the corresponding amino acid; cited from earlier work.
For another data set, the system named is UM22B xenograft. In words: PET imaging and biodistribution in UM22B tumor-bearing mice. Type of data set: in vivo. As to the method:
All imaging studies were performed as follows. PET scans were obtained and image analysis were performed using an Inveon small-animal PET scanner (Malvern, Pa., USA). About 3.7 MBq of ^18F-AA were administered via tail vein injection under isoflurane anesthesia. […] For dynamic acquisition, 60 min dynamic PET scans were acquired, followed by a late-time-point scans at 2 h after tracer injection. With the acute inflammation model, 10-min static PET images were acquired at 1 h and 2 h after injection. The images were reconstructed using a 3-dimensional ordered subset expectation maximum algorithm, and no correction was applied for attenuation or scatter. For each scan, regions of interest (ROIs) were drawn using vendor software (ASI Pro 5.2.4.0; Siemens Medical Solutions) on decay-corrected whole-body coronal images. The radioactivity concentrations (accumulation) within the tumor, heart, muscle, liver, brain, and kidneys were obtained from mean pixel values within the multiple ROI volumes and then converted to megabecquerel per milliliter. These values were then divided by the administered activity to obtain (assuming a tissue density of 1 g/mL) an image-ROI-derived percentage injected dose per gram (% ID/g).

The test system of data set [3] is amino acid transporters. Conditions: natural amino acid, comparison value; read-out: KM/μM, AA; cited from earlier work.
Data set [4] has as its system amino acid transporters. In words: Uptake-concentration kinetics, Michaelis-Menten fitting, in U87MG cells. Type of data set: cell-based, human. Conditions: 60 min at 37° C. in PBS, read-out: KM/μM, ^18F-AA-BF3 (BAA). The procedure:
The uptake of BAA in U87MG cells was measured at increasing concentrations in phosphate-buffered saline (PBS) and plotted against the concentration of BAA. […] The KM values of ^18F-BAAs were calculated by Michaelis-Menten fitting using Igor Pro 6.22.
The uptake-concentration correlations (FIGS. 12-15) fit well with Michaelis-Menten kinetics, giving the values of Table 4.

For another data set, the system named is UM22B cells. As to the kind of experiment: Competitive inhibition assay of 18F-Leu-BF3 uptake. Format: cell-based. Conditions: 60 min incubation. The procedure: To study the specificity of BAA transportation, a competitive inhibition assay was performed using UM22B cells in the presence of natural amino acid and transporter inhibitor.
The subject of the next data set is system P transporters. Conditions: read-out: KM value, cited from earlier work.
In a further data set the test system is U87MG human glioma cells. Type of data set: cell-based.
The mark [5] stands for this setting: read-out: inhibition of uptake of 18F-Ala-BF3.
The mark [6] stands for this setting: read-out: inhibition of uptake of 18F-Phe-BF3.
[7] abbreviates: read-out: inhibition of uptake of 18F-Pro-BF3.
Setting [8] is: UM22B-bearing mice, 120 min after injection.
Setting [9] is: U87MG cells, competitor at 25 mM, 60 min incubation.

Like-named read-outs stand apart in the source and are kept apart here.

On to `CNC(C)(C)C(=O)O` [MeAIB, 2-methylaminoisobutyric acid], for which the inhibition at 25000 µM stood at 39.3% in the data set with U87MG cells (setting [5]), 17.6% with U87MG cells (setting [6]) and 39.3% with U87MG cells (setting [7]). Also, the inhibition in the data set with U87MG cells was found to be 24.5%.

With `C[C@H]([NH3+])[B-](F)(F)F` [Ala-BF3], in [1], the t1/2/min was found to be 56.42 h, the pKB-F was 3.6895 and the “k (solv)/min^−1” value came out at 0.0002044 min⁻¹. For the same compound, the “pka of corres. COOH” value in data set [2] is 2.35.

In the case of `[NH3+][C@@H](Cc1ccccc1)[B-](F)(F)[18F]` [^18F-Phe-BF3], in the data set with UM22B xenograft (PET, tumor-bearing mice), the bone uptake entry was “undetectable”. Besides, in the data set on UM22B xenograft (setting [8]), the “Average Uptake (% ID/g), blood pool” value was determined as 2.46 ± 0.50 % ID/g; the “Average Uptake (% ID/g), hottest voxel cluster of tumor” value is on record as 13.29 ± 1.18 % ID/g; the “Average Uptake (% ID/g), kidney” value stood at 2.13 ± 0.34 % ID/g; the “Average Uptake (% ID/g), liver” value turned out to be 2.67 ± 0.44 % ID/g. In the data set with UM22B xenograft (setting [8]), the “Average Uptake (% ID/g), muscle” value is on record as 2.31 ± 0.44 % ID/g and the “Average Uptake (% ID/g), whole tumor region of interest” value came to 7.31 ± 0.78 % ID/g. For the same compound, the “tumor uptake, peak voxel cluster value” in the data set with UM22B xenograft (time-activity curves, UM22B tumor-bearing mice (FIGS. 21 and 22)) is on record as “approximately 15 % ID/g”.

Consider `N[C@@H](Cc1ccccc1)C(=O)O` [L-phenylalanine], for which, in the data set on amino acid transporters [3], the Km is 18.7 ± 4.1 µM. Also, the inhibition at 25000 µM was 71% in the data set with U87MG cells (setting [5]), roughly 80% in the data set on U87MG cells (setting [6]) and 0.1% in the data set with U87MG cells (setting [7]).

Regarding `C[C@H]([NH3+])[B-](F)(F)F` [^18F-Ala-BF3], in the data set with amino acid transporters [4], the Km amounted to 468 ± 87.2 µM.

`C[C@H]([NH3+])[B-](F)(F)[18F]` [^18F-Ala-BF3]: in the data set on U87MG cells (U87MG cells, 18F-Ala-BF3, 60 min incubation), the “inhibition of uptake by sodium free medium” value stood at 91.1%.

Turning to `N[C@@H](CCC(=O)O)C(=O)O` [L-Glutamate], in the data set on U87MG cells (setting [9]), the “inhibition of uptake of 18F-Ala-BF3” value came out at 50.3%, the “inhibition of uptake of 18F-Phe-BF3” value is listed as 13.0% and the “inhibition of uptake of 18F-Pro-BF3” value amounted to 0.2%.

As to `CC(C)C[C@H]([NH3+])[B-](F)(F)F` [Leu-BF3], in [1], the t1/2/min is 60.25 h, the pKB-F came to 3.7181 and the “k (solv)/min^−1” value turned out to be 0.0001914 min⁻¹. Also, in data set [2], the “pka of corres. COOH” value is 2.33.

Take `CC(C)C[C@H]([NH3+])[B-](F)(F)F` [^18F-Leu-BF3]: the Km in the data set on amino acid transporters [4] is 25.9 ± 2.4 µM.

For the compound `CC(C)C[C@H](N)C(=O)O` [L-leucine], the “inhibition of cell uptake of 18F-Leu-BF3” value with UM22B cells is reported as 94.7%. The Km in the data set with amino acid transporters [3] was 19.7 ± 2.4 µM. The inhibition with U87MG cells was roughly 98%.

With `CSCC[C@H]([NH3+])[B-](F)(F)F` [Met-BF3], in [1], the t1/2/min stood at 116.4 h, the pKB-F stood at 4.0041 and the “k (solv)/min^−1” value was found to be 9.906e-05 min⁻¹. Besides, the “pka of corres. COOH” value in data set [2] is listed as 2.13.

With `[NH3+][C@@H](Cc1ccccc1)[B-](F)(F)F` [^18F-Phe-BF3], the Km in the data set with amino acid transporters [4] came out at 17.6 ± 4.2 µM.

As to `[NH3+]C(Cc1ccccc1)[B-](F)(F)F` (centres unmarked) [Phe-BF3], in [1], the t1/2/min was found to be 92.45 h, the pKB-F was determined as 3.904 and the “k (solv)/min^−1” value was found to be 0.0001247 min⁻¹. For the same compound, the “pka of corres. COOH” value in data set [2] is given as 2.2.

Turning to `O=C(O)[C@@H]1CCCN1` [proline], the Km in the data set with amino acid transporters [3] was 67 ± 11.5 µM; with system P transporters (system P transporter with high KM) it was roughly 5000 µM; with system P transporters (system P transporter with low KM) it was roughly 100 µM. Further, in the data set with U87MG cells (setting [7]), the inhibition at 25000 µM is roughly 80%.

Regarding `N=C(N)NCCC[C@H](N)C(=O)O` [L-Arginine], the inhibition at 25000 µM in the data set with U87MG cells (setting [5]) amounted to 58.2%; in the data set on U87MG cells (setting [6]) it was 42.6%; in the data set on U87MG cells (setting [7]), 15.6%. In addition, the inhibition in the data set on U87MG cells amounted to 23%.

On to `F[B-](F)(F)[C@@H]1CCC[NH2+]1` [Pro-BF3], for which, in [1], the t1/2/min was 210.58 h, the pKB-F is given as 4.2615 and the “k (solv)/min^−1” value amounted to 5.476e-05 min⁻¹. Further, the “pka of corres. COOH” value in [2] is 1.95.

Turning to `F[B-](F)(F)[C@@H]1CCC[NH2+]1` [^18F-Pro-BF3], the Km in the data set on amino acid transporters [4] stood at 65.6 ± 45.2 µM.

As for `F[B-](F)([18F])[C@@H]1CCC[NH2+]1` [^18F-Pro-BF3], the “inhibition of uptake by sodium free medium” value in the data set on U87MG cells (U87MG cells, 18F-Pro-BF3, 60 min incubation) stood at 76.2%.

On to `NC1(C(=O)O)CC2CCC1C2` (centres unmarked) [BCH, 2-amino-2-norbornanecarboxylic acid], for which the “inhibition of cell uptake of 18F-Leu-BF3” value in the data set with UM22B cells amounted to 83.0%. The inhibition in the data set on U87MG cells was 77.4%. The inhibition at 25000 µM with U87MG cells (setting [6]) came out at 72.1%. For the same compound, the “inhibition of uptake of 18F-Leu-BF3” value in the data set on U87MG cells (U87MG cells, BCH with sodium-free medium, 60 min incubation) was determined as 83.0%.

As to “^18F-fluorodeoxyglucose [^18F-FDG, reference compound]”, in the data set on U87MG human glioma cells, the cell uptake result is on record as “less than 5 % AD”.

Consider `C[C@H](N)C(=O)O` [L-Alanine], for which the Km with amino acid transporters [3] is 370 µM. Further, the inhibition at 25000 µM is roughly 90% in the data set on U87MG cells (setting [5]) and 60.3% in the data set on U87MG cells (setting [6]). Moreover, the inhibition in the data set with U87MG cells is 38.9%.

These data come from patent US20190055267A1, “ORGANOTRIFLUOROBORATE MIMICS OF AMINO ACIDS AND USES THEREOF” (The United States of America, as represented by the …, priority 2015, published 2019).
